Data from PubChem BioAssay (NCI).
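Compound exposure: 48 hours, 5 concentrations, 96-well plates. TGI is the concentration that stops growth completely.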

Experiments:
Assay in all cases: growth of human tumour cells (NCI), 48 h
HL-60(TB) leukemia = system: HL-60(TB) leukemia
OVCAR-5 ovarian = system: OVCAR-5 ovarian
M14 melanoma = system: M14 melanoma
SF-268 CNS = system: SF-268 CNS
SNB-19 CNS = system: SNB-19 CNS
NCI-H23 lung = system: NCI-H23 lung
SW-620 colon = system: SW-620 colon
786-0 renal = system: 786-0 renal
A549 NSCLC = system: A549 NSCLC
HT29 colon = system: HT29 colon
LOX IMVI melanoma = system: LOX IMVI melanoma
HOP-92 NSCLC = system: HOP-92 NSCLC
A498 renal = system: A498 renal
DU-145 prostate = system: DU-145 prostate
MOLT-4 leukemia = system: MOLT-4 leukemia
HCT-116 colon = system: HCT-116 colon
SK-MEL-2 melanoma = system: SK-MEL-2 melanoma
HCC-2998 colon = system: HCC-2998 colon
NCI-H522 lung = system: NCI-H522 lung

SMILES	TGI (HL-60(TB) leukemia)	TGI (OVCAR-5 ovarian)	TGI (M14 melanoma)	TGI (SF-268 CNS)	TGI (SNB-19 CNS)	TGI (NCI-H23 lung)	TGI (SW-620 colon)	TGI (786-0 renal)	TGI (A549 NSCLC)	TGI (HT29 colon)	TGI (LOX IMVI melanoma)	TGI (HOP-92 NSCLC)	TGI (A498 renal)	TGI (DU-145 prostate)	TGI (MOLT-4 leukemia)	TGI (HCT-116 colon)	TGI (SK-MEL-2 melanoma)	TGI (HCC-2998 colon)	TGI (NCI-H522 lung)
CC(=O)/C(=C\I)c1ccccc1	3.49 µM	2.99 µM	4.4 µM	36.5 µM	24.5 µM	4.99 µM	2.82 µM	4.13 µM	30 µM	2.29 µM	3.59 µM	4.74 µM	32.3 µM	15.3 µM	5.35 µM	4.65 µM	4.75 µM		
C1CSCC2(COC2)CSCCSCC2(COC2)CS1	> 100 µM	> 100 µM	> 100 µM	> 100 µM	> 100 µM	> 100 µM	> 100 µM	> 100 µM	> 100 µM	> 100 µM	> 100 µM	> 100 µM		> 100 µM	> 100 µM	> 100 µM		> 100 µM	> 100 µM
CCCCCCCCCCCCOCC1(COCCCCCCCCCCCC)COC(c2ccc(N)cc2)OC1		> 100 µM	> 100 µM	> 100 µM	> 100 µM	> 100 µM	> 100 µM	> 100 µM	> 100 µM	> 100 µM	> 100 µM		> 100 µM	> 100 µM	> 100 µM	> 100 µM	> 100 µM	> 100 µM	
CCSC1=N/C(=C\c2ccco2)C(=O)N1		> 100 µM	> 100 µM	> 100 µM	> 100 µM	> 100 µM	> 100 µM	> 100 µM	> 100 µM	> 100 µM	> 100 µM	> 100 µM	> 100 µM	> 100 µM	> 100 µM	> 100 µM	> 100 µM		> 100 µM
CSc1nc(=O)cnn1C		> 100 µM	> 100 µM	> 100 µM	> 100 µM	> 100 µM	> 100 µM	> 100 µM	> 100 µM	> 100 µM				> 100 µM	> 100 µM	> 100 µM	> 100 µM	> 100 µM	> 100 µM
COc1cc([C@@H]2c3cc4c(cc3[C@@H](Nc3ccc(Cl)cc3C(=O)c3ccccc3)[C@H]3COC(=O)[C@H]23)OCO4)cc(OC)c1OC	1.09 µM	> 100 µM	> 100 µM	> 100 µM	> 85.1 µM	> 29.6 µM	> 100 µM	> 100 µM	> 100 µM		> 100 µM		5.27 µM	> 100 µM	> 100 µM	> 100 µM	> 100 µM		0.918 µM
COC(=O)C(=O)C(C(=O)C(=O)Nc1ccc(C)cc1C)c1nc2ccc(Cl)cc2[nH]c1=O (stereo unspecified)	> 100 µM	> 100 µM	> 100 µM	> 100 µM	> 100 µM	> 100 µM	> 100 µM	> 100 µM	> 100 µM	> 100 µM	> 100 µM	> 100 µM		> 100 µM	> 100 µM	> 100 µM	> 100 µM	> 100 µM	> 100 µM
CCCCOC/N=C(/N)NC#N	> 100 µM	> 100 µM	> 100 µM	> 100 µM	> 100 µM	> 100 µM	34.3 µM	> 100 µM	> 100 µM	> 100 µM	90.1 µM	> 100 µM	> 100 µM		> 100 µM	> 100 µM	> 100 µM	> 100 µM	> 100 µM
O=C1OC([C@H](O)c2cccnc2)c2ccccc21 (stereo partly specified)	> 10 µM	> 10 µM	> 10 µM	> 10 µM	> 10 µM	> 10 µM	> 10 µM	> 10 µM	> 10 µM	> 10 µM	> 10 µM	> 10 µM		> 10 µM	> 10 µM	> 10 µM	> 10 µM	> 10 µM	> 10 µM
O=C(/C=C/c1ccccc1O)c1ccccc1Cl	63.8 µM	> 100 µM	> 100 µM	> 100 µM	> 100 µM	> 100 µM	> 100 µM	> 100 µM	> 100 µM	> 100 µM	73.6 µM	> 100 µM	> 100 µM		84.1 µM	> 100 µM	> 100 µM	> 100 µM	80.4 µM
NC(=O)[N+](=CC(=S)Nc1ccccc1Cl)C(N)=O	> 100 µM	> 100 µM	> 100 µM	> 100 µM	> 100 µM	> 100 µM	> 100 µM	> 100 µM	> 100 µM	> 100 µM	> 100 µM	> 100 µM		> 100 µM	> 100 µM	> 100 µM	> 100 µM	> 100 µM	> 100 µM
O=C1NC2(CCNCC2)Oc2ccccc21	> 100 µM	> 100 µM	> 100 µM	> 100 µM	> 100 µM	> 100 µM	> 100 µM	> 100 µM	> 100 µM	> 100 µM	> 100 µM	> 100 µM		> 100 µM	> 100 µM	> 100 µM	> 100 µM	> 100 µM	> 100 µM
O=C1Oc2ccccc2C(=O)/C1=C/N1C(=O)CNC1=S	> 100 µM	> 100 µM	> 100 µM	> 100 µM	> 100 µM	> 100 µM	> 100 µM	> 100 µM	> 100 µM	> 100 µM	> 100 µM			> 100 µM	> 100 µM	> 100 µM	> 100 µM	> 100 µM	> 100 µM
COc1ccc2[nH]c3c(c2c1)[C@H]1CCC(C(C)(C)C)C[C@H]1[C@H]1C(=O)N(c2ccccc2)C(=O)[C@@H]31 (stereo partly specified)	> 100 µM	> 100 µM	30.6 µM	> 48.2 µM	> 51.7 µM	> 52.1 µM	> 100 µM	15.6 µM	> 75.8 µM	> 100 µM	> 100 µM	21 µM	44.1 µM		> 71.2 µM	> 100 µM	58 µM	> 100 µM	> 49.5 µM
